Measured values as given in PMC5200928 (ACS Central Science, 2016).
Values belong to the compound of their own block, whether it stands above or below them.

How the values were obtained:
[1] = tested on: ERK1/2; test: ERK1/2 degradation in A375 cells, immunoblot; type: cell-based; conditions: for ERK1/2 degradation: then Tz-thalidomide-Me 10 μM 18 h
[2] = biological target: BRD4 (Homo sapiens, UniProt O60885); test: BRD4 degradation in HeLa cells, immunoblot; type: cell-based

- BRD4 level ([2]; JQ1-TCO 10 μM 18 h, then Tz-thalidomide-Me 10 μM 18 h): remained unchanged
SMILES: Cc1nnc(-c2ccc(CNC(=O)CCCCCOc3cccc4c3C(=O)N(C3CCC(=O)N(C)C3=O)C4=O)cc2)nn1 (stereo not drawn) [Tz-thalidomide-Me]
- ERK1/2 degradation ([1]; Probe 1 4 h): insignificant degradation of ERK1/2
- ERK1/2 degradation ([1]; Probe 1 4 h, listed as methyl-Tz-thalidomide): reduced ERK1/2 degradation

- BRD4 levels with proteasome inhibitor ([2]; 4-h pretreatment with carfilzomib 1 μM, JQ1-TCO and Tz-thalidomide treatment): BRD4 levels were rescued
SMILES: CC(C)C[C@H](NC(=O)[C@H](CCc1ccccc1)NC(=O)CN1CCOCC1)C(=O)N[C@@H](Cc1ccccc1)C(=O)N[C@@H](CC(C)C)C(=O)[C@@]1(C)CO1 [carfilzomib]
- ERK1/2 degradation with proteasome inhibitor ([1]; 4-h pretreatment with carfilzomib 1 μM, Probe 1 and Tz-thalidomide): ERK1/2 degradation was prevented

SMILES: O=C1CCC(N2C(=O)c3ccccc3C2=O)C(=O)N1 (stereo not drawn) [thalidomide]
- ERK1/2 degradation, competition ([1]; Probe 1 4 h, then untagged thalidomide 10 μM and Tz-thalidomide 1 μM 18 h): degradation of ERK1/2 was suppressed
